How the values were obtained:
[1] = Oral bioavailability study in rabbits (serum gallium by graphite furnace atomic absorption); format: in vivo, New Zealand white rabbits; settings: oral gavage; for Mean gallium content of rabbit serum: 4 ml per kg, 10 mg elemental gallium per 4 ml, fasted 18 hours, 3 animals
Experimental: A test of the oral bioavailability of the 3:1 ethyl maltol:gallium complex in rabbits was conducted. In this test, the complex was given to rabbits and compared to a solution of gallium nitrate. Six female New Zealand white rabbits weighing between 2.68 and 2.91 kg were used, and were not fed for 18 hours before starting the experiment. A suspension of the 3:1 gallium ethyl maltol complex in double distilled water was prepared with a concentration of 10 mg elemental gallium per 4 ml of suspension. […] A small amount of solid sodium carbonate was added to the latter solution to bring the pH up to about 6. Each of the two solutions was given to three rabbits by oral gavage (through a tube inserted through the mouth to the stomach) in the amount of 4 ml per kg of body weight. The stomach tubes were flushed by three ml of water following administration of the solutions.
Six ml of blood was taken from each, rabbit at 1 hour, 2 hours, 4 hours, 8 hours, and 24 hours following administration of the solutions, and the serum separated and frozen. Control samples of blood were taken 24 hours earlier. The frozen serum samples were then sent to an independent testing laboratory for determination of the gallium contents by graphite furnace atomic absorption analysis. The testing laboratory received numbered serum samples, and never had any knowledge of the experimental conditions used to produce the samples. Due to uncertainties in the analytical procedures for gallium in serum, the relative proportions of gallium in the serum samples are considered more significant than the actual reported concentrations.

[2] = Solubility in distilled deionized water
Source text: Under some conditions, water may also be incorporated into the structure.

[3] = format: physicochemical
Experimental: The complex was studied at two concentrations in double distilled deionized water: […]. The pH was adjusted by adding either 1N HCl or 1N Na2 CO3. The stability of the complex was determined using ultraviolet spectroscopy over the region 200-450 nm at 25° C. […] An isobesic point occurs over much of the pH range at about 290 nm. In the very dilute solutions (2.5×10^-6 M), the neutral 3:1 complex appears to be stable from about pH 4.5 to 9.5. For the less dilute solutions (1.0×10^-2 M), the determination was more difficult due to the very high absorbance.

[4] = system: rabbits; settings: rabbit, in vivo; cited from earlier work

Row | SMILES | Mean gallium content of rabbit serum ([1]; 1 hour) | Mean gallium content of rabbit serum ([1]; 2 hours) | Mean gallium content of rabbit serum ([1]; 4 hours) | Mean gallium content of rabbit serum ([1]; 8 hours) | Mean gallium content of rabbit serum ([1]; 24 hours) | Oral absorption compared with gallium nitrate ([1]; rabbits, equal volume and gallium concentration, stomach acid not counteracted) | Solubility ([2]; distilled deionized water, 23° C.) | pH stability region of the neutral 3:1 complex (in words) [3] | Solubility ([2]; water) | Neurotoxicity [4]
1 | CCc1occc(=O)c1[O][Ga]([O]c1c(CC)occc1=O)[O]c1c(CC)occc1=O [Gallium Ethyl Maltol, 3:1 complex of ethyl maltol and gallium] | 90 ng/mL | 274 ng/mL | 260 ng/mL | 212 ng/mL | 84 ng/mL | absorbed in significantly higher amounts than the gallium nitrate suspension | about 5 millimolar | – | – | –
2 | Cc1occc(=O)c1[O-].Cc1occc(=O)c1[O-].Cc1occc(=O)c1[O-].[Ga+3] [Gallium Maltol] | – | – | – | – | – | – | – | very similar to that of the highly dilute solution, possibly slightly wider | about 24 millimolar | –
3 | Cc1occc(=O)c1[O][Al]([O]c1c(C)occc1=O)[O]c1c(C)occc1=O [aluminum maltol complex] | – | – | – | – | – | – | – | – | – | highly neurotoxic
4 | O=[N+]([O-])[O-].O=[N+]([O-])[O-].O=[N+]([O-])[O-].[Ga+3] [gallium nitrate, reference compound] | 51 ng/mL | 99 ng/mL | 118 ng/mL | 103 ng/mL | 64 ng/mL | – | – | – | – | –

From US5998397A, “Gallium complexes of 3-Hydroxy-4-pyrones to treat or prevent bone disease” (priority 1998, dated 1999)
